Source: article PMC10065799, “High-throughput profiling of sequence recognition by tyrosine kinases and SH2 domains using bacterial peptide display” (eLife, 2023)
Blank lines part the entries; values can stand above or below the sequence they belong to.

What was measured:
Assay in all cases: pTyr-Var library bacterial peptide display kinase screen (enrichment scores)
c-Src kinase domain = c-Src kinase domain (Homo sapiens, UniProt P12931); assay type: biochemical; conditions: sheet "Src";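 note: log2 fold change in enrichment of variant over reference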
EPHB1 kinase domain = assay type: biochemical, human; conditions: for Screen: sheet EPHB1, effect of the variant peptide relative to its reference peptide in the pTyr-Var library screen (enrichment scores); for Screen (variant relative to reference peptide, measured in the pTyr-Var library screen): sheet "EPHB1", variant seq vs reference seq, bacterial peptide display enrichment
EPHB2 kinase domain = assay type: biochemical, human; conditions: sheet EPHB2
Fer kinase domain = assay type: biochemical, mouse; conditions: sheet "Fer"
c-Abl kinase domain = target: T1, c-Abl kinase domain (Mus musculus, UniProt P00520); assay type: biochemical;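 note: log2 fold change in enrichment of variant over reference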
T1 sequence (P00520 242-493 limits assumed): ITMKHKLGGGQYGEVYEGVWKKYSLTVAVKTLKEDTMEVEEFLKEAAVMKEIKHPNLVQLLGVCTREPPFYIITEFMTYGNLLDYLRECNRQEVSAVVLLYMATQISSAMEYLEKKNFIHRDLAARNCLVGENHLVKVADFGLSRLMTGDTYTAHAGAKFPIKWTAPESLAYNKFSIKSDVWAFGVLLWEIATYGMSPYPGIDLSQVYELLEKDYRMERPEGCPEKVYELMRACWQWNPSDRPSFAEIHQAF

[1] = effect of the variant peptide relative to its reference peptide in the pTyr-Var library screen
[2] = variant peptide versus its reference peptide in the pTyr-Var library screen
[3] = variant peptide relative to its reference peptide, pTyr-Var library screen enrichment
[4] = sheet "Abl", effect of variant peptide relative to its reference peptide in pTyr-Var library screen (enrichment)
[5] = fig5-data2, sheet "Abl", Screen for the variant/reference peptide pair, pTyr-Var library
[6] = value of the variant peptide against its reference peptide in the pTyr-Var library screen with Fer
[7] = effect of variant peptide relative to its reference peptide in the pTyr-Var library screen (enrichment scores)

Sequence: GNLLIYTDFGK [HGD_Y166_E168D]
Screen (c-Src kinase domain; [1]): -0.3604
Screen (EPHB1 kinase domain): 0.7596

Sequence: LESILYESSVV [TRPV4_Y91_T89I]
Screen (c-Src kinase domain; [2]): -0.6958
Screen (Fer kinase domain; [3]): -0.3592

Sequence: NHFKRYNLCAE [PTEN_Y68_I67R_YF]
Screen (c-Src kinase domain; [2]): -2.549

Sequence: ADDSFYTVRSA [ZAP70_Y493_A495V_YF]
Screen (c-Src kinase domain; [2]): 1.093
Screen (c-Abl kinase domain; [4]): -3.301

Sequence: STTSDYQWDFS [MTDH_Y364_V368F]
Screen (c-Abl kinase domain; [5]): -0.6152

Sequence: FSTPPYLLEAA [BRIP1_Y921_S919P_YF]
Screen (c-Src kinase domain; [1]): -1.274

Sequence: DFFDLYGGKKF [PTPN11_Y66_E69K_YF]
Screen (c-Src kinase domain; [2]): 0.3147

Sequence: FISLIYTNFEV [GSTP1_Y109_A114V_YF]
Screen (c-Src kinase domain; [1]): 0.2277
Screen (Fer kinase domain; [6]): 1.457
Screen (c-Abl kinase domain; [5]): 1.388

Sequence: AHARMYGVLPW [PLP1_Y207_D203H]
Screen (EPHB2 kinase domain; [7]): -2.408
Screen (c-Src kinase domain; [2]): -1.491

Sequence: LERFIYNRQEF [HLA-DPB1_Y59_E62Q_YF]
Screen (c-Src kinase domain; [1]): -1.248

Sequence: GGSDCYGSLRP [MYLK_Y846_R845C]
Screen (c-Src kinase domain; [2]): 2.609

Sequence: PGDGEYFTLQI [TP53_Y327_L323G]
Screen (c-Src kinase domain; [2]): 0.07795

Sequence: PLDVEYFTLQI [TP53_Y327_G325V]
Screen (c-Src kinase domain; [2]): -0.5097
Screen (c-Abl kinase domain; [4]): -0.7642

Sequence: LFLALYTGLVR [PIGB_Y402_H407R]
Screen (c-Src kinase domain; [2]): -0.3512

Sequence: NHFKIYNLFAE [PTEN_Y68_C71Y_YF]
Screen (c-Src kinase domain; [2]): -1.146

Sequence: FFLGAYDRFLP [SLC22A5_Y486_V481F_YF]
Screen (EPHB2 kinase domain; [7]): -0.4331
Screen (c-Src kinase domain; [2]): -0.1466
Screen (c-Abl kinase domain; [4]): -0.3891

Sequence: LADKPYTFEFF [FXN_Y118_D122Y_YF]
Screen (EPHB2 kinase domain; [7]): -0.8967
Screen (c-Src kinase domain; [1]): -0.4395
Screen (Fer kinase domain; [6]): -0.3661

Sequence: PSDLLYIPDIQ [ITGA2B_Y845_L847P]
Screen (c-Src kinase domain; [1]): -2.46

Sequence: EAAFVYVISSA [WNT4_Y113_A114V]
Screen (c-Src kinase domain; [2]): -2.147
Screen (c-Abl kinase domain; [4]): 1.673

Sequence: LDFPEYNGVDR [CASQ1_Y43_D44N]
Screen (c-Src kinase domain; [1]): 0.514

Sequence: LNPLIYTLRNA [OR4C46_Y285_K288R]
Screen (c-Src kinase domain; [2]): 1.167

Sequence: SDMGQYQCLVF [AXL_Y115_T112M]
Screen (c-Src kinase domain; [1]): 0.2602
Screen (Fer kinase domain; [6]): 0.2934

Sequence: PLDGEYVTLQI [TP53_Y327_F328V]
Screen (c-Src kinase domain; [2]): -2.053
Screen (c-Abl kinase domain; [4]): -0.6513

Next, values leading:

Screen (EPHB2 kinase domain; effect of the variant relative to its reference peptide in the pTyr-Var library screen): -1.317
Sequence: IGMLIYFARKA [VCAM1_Y718_I716L]

Screen (c-Abl kinase domain; [4]): 4.174
Sequence: WAMPAYNRSKL [WWOX_Y293_L291P]

Screen (c-Abl kinase domain; [5]): 1.339
Sequence: PFQGAYLKINK [MYO1B_Y967_E969K]

Screen (c-Abl kinase domain; [5]): -0.3809
Sequence: FKGIVYSVSSD [DCX_Y70_A71S]

Screen (c-Abl kinase domain; [5]): -0.2946
Sequence: DRLTVYIDRVR [LMNA_Y45_A43T]

Screen (c-Abl kinase domain; [5]): -0.3155
Sequence: AALLNYKAGRD [GRIN2A_Y737_V734L]

Screen (c-Abl kinase domain; [5]): 0.2762
Sequence: CENCHYPILPL [LCK_Y25_V28L]

Screen (c-Abl kinase domain; [5]): 0.5412
Sequence: QFKGKYLAKHN [CASK_Y712_D710G_YF]

Screen (Fer kinase domain; [6]): 0.4548
Sequence: GQDLLYEDEDL [PACS1_Y303_F302L]

Screen (c-Abl kinase domain; [4]): 1.141
Sequence: SVTCTYPPALN [TP53_Y126_S127P]

Screen (c-Abl kinase domain; [5]): -0.2235
Sequence: NCLRVYVAGRF [CRB1_Y711_E710V]

Screen (c-Abl kinase domain; [5]): 1.901
Sequence: TEALFYTDDPA [ADPRS_Y75_T79P_YF]

Screen (c-Abl kinase domain; [5]): -1.349
Sequence: NNRVFYGNSDC [RS1_Y177_R182C]

Screen (EPHB2 kinase domain; [7]): 1.263
Screen (Fer kinase domain; [3]): -0.9951
Sequence: VIVRMYDFHVL [RPF2_Y109_G106V_YF]

Screen (EPHB2 kinase domain; [7]): 0.9502
Sequence: WKEREYEVVRD [CPS1_Y634_I632R]

Screen (Fer kinase domain; [3]): 0.543
Screen (c-Abl kinase domain; [4]): 2.296
Sequence: IVRSLYEDVED [VHL_Y185_L188V]

Screen (variant relative to reference peptide, measured in the pTyr-Var library screen) (EPHB1 kinase domain): -0.4743
Sequence: HVKHNYECLVF [XRCC5_Y416_I412V_YF]

Screen (c-Abl kinase domain; [5]): -0.9436
Sequence: PVQAAYQKVEA [HBB_Y131_V135E]

Screen (c-Abl kinase domain; [5]): 0.4399
Sequence: VGAKTYKMSMA [CPS1_Y309_A304V]

Screen (EPHB1 kinase domain): 1.698
Sequence: SSWPDYVRPLP [HSPB1_Y54_G53D]

Screen (c-Abl kinase domain; [5]): 1.454
Sequence: CEAIEYLESKQ [BTK_Y511_M509I]

Screen (c-Abl kinase domain; [5]): 0.544
Sequence: RLLVVYTWTQR [HBB_Y36_P37T]

Screen (c-Abl kinase domain; [4]): -1.969
Sequence: KLSHLYQDHMQ [WNT5A_Y86_C83S]

Screen (variant relative to reference peptide, measured in the pTyr-Var library screen) (EPHB1 kinase domain): -2.109
Sequence: GESKDYALHAG [SVIL_Y185_V189A]

Screen (c-Abl kinase domain; [5]): -0.4723
Sequence: VRHRHYKHTHE [CTCF_Y343_R342H]

Screen (Fer kinase domain; [6]): 2.885
Sequence: EACPSYSHVVL [CHST6_Y168_R166P]

Screen (c-Abl kinase domain; [4]): -3.408
Sequence: TDGIAYEFRVT [TTN_Y22256_I22261T]

Screen (c-Abl kinase domain; [5]): -0.568
Sequence: FLAVGYHMPHI [IDS_Y225_K227M]
